Legend:
[1] = system: NK T hybridoma DN32.D3; assay: Murine NK T cell hybridoma stimulation assay (IL-2 release), RMA-S.mCD1d as APC; format: cell-based, mouse; details: presented by RMA-S/CD1d cells
Experimental: FIG. 5. […] NK T hybridoma DN32.D3 was cultured with CD1d-transfected RMA-S cells in microtiter plate wells. Each ceramide-like glycolipid was titrated over a concentration range from 0.5-500 nM, and supernatants were harvested after 24 hours for measurement of IL-2 release. Units of activity were calculated as the reciprocal of the concentration of ceramide-like glycolipid required to give a half maximal release of IL-2, and all values were normalized to the activity of KRN7000 (defined as 1 Unit). The dotted line indicates the level of activity for KRN7000. The structures of two ceramide-like glycolipids with markedly elevated activity relative to KRN7000 are shown.
The ability of the compounds to activate NK T cell hybridomas in the presence of various types of cells expressing CD1d reported in FIG. 5A was determined using a murine NK T cell hybridoma stimulation assay. […] Relative potencies of the ceramide-like glycolipids were calculated from the reciprocal effective concentrations at half-maximal response (1/EC50), and expressed as units by normalization to the observed potency for KRN7000.
IL-2 production by NK T hybridoma DN32D3 in response to eight selected ceramide-like glycolipids, was determined using three different cell types as antigen presenting cells. […]

[2] = system: NOD mice; assay: Prevention of type 1 diabetes in NOD mice; format: in vivo; details: i.p. once per week, 200 micrograms/kg; comparator DB01-1 (indicated as KRN7000)
Experimental: Cohorts of 6-8 female NOD mice were treated with placebo (vehicle) or DB01-1 (indicated as KRN7000), DB03-4 or DB03-5 injections once weekly beginning at 4-5 weeks of age. Treatment was discontinued after 5 injections (DB03-4) or 7 injections (DB03-5). Top graphs show incidence of glycosuria, and bottom graphs show survival in each cohort.
Given the widely held belief that selective augmentation of IL-4 production can be protective or therapeutic in the setting of many autoimmune diseases, we have initiated studies to examine the efficacy of compounds such as DB03-4 and DB03-5 in diabetes prone NOD mice. […] The results reported in FIG. 10 were obtained by treating three groups, each consisting of 9-12 female NOD mice, starting from age 5 weeks with a ceramide-like glycolipid. The indicated ceramide-like glycolipids (DB03-4, DB03-5, or KRN7000) were injected i.p. once per week in a dose of 200 micrograms/kg. Treatment was discontinued at 11 weeks of age, and the mice were monitored weekly for glucosuria (top) and death (bottom).
For experiments involving in vivo treatment of mice with the ceramide-like glycolipids, the ceramide-like glycolipids were administered by i.p. or i.v. injection in 0.2 ml PBS+0.025% Tween-20, or in vehicle alone. A typical dose is about 4-5 nmoles per animal per injection. […]

[3] = system: iNKT cells; assay: In vitro cytokine modulation, murine cell assay system; format: cell-based
[4] = system: human NKT cell clones; assay: Human in vitro NKT cell assay system; format: cell-based; details: proliferative responses and cytokine secretion
Text: For example, DB03-4 and DB03-5 are active in stimulation of human NKT cell clones in vitro, and elicits proliferative responses and cytokine secretion when evaluated using culture systems previously established in the literature (See, e.g., Spada F M, Sugita M, Watts G F M, Koezuka Y, and Porcelli S A. Low expression but potent antigen presenting function of CD1d on monocyte lineage cells, Eur. J. Immunol., 30:3468-3477 (2000), and Spada F M, Koezuka Y, Porcelli S A, CD1d-restricted recognition of synthetic glycolipid antigens by human NK T cells. J Exp Med; 188:1529-1534 (1998), see also, Lee P T et al., J Clin Invest., 2002 September; 110(6):793-800. […] Acad. Sci. (USA), 102:3383-8 (2005)).

[5] = system: T cell antigen receptors of human NKT cells; assay: Glycolipid human CD1d tetramer binding; details: normal blood specimens
[6] = system: NK T cells; assay: NK T cell activation screens (Example, FIG. 5 and Table 1); format: cell-based; details: see Example
Text: Using these methods, we produced more than 60 novel amino substituted analogues of KRN7000. These were screened in a functional assay that assessed the ability of the compounds to activate NK T cell hybridomas in the presence of various types of cells expressing CD1d, or in the presence of recombinant CD1d proteins bound to the tissue culture plate surface (FIG. 5).

SMILES: CCCCC/C=C\C/C=C\CCCCCCCCCC(=O)N[C@@H](COC1OC(CO)C(O)C(O)C1O)[C@H](O)[C@H](O)CCCCCCCCCCCCCC (stereo partly drawn) [DB03-4]
- potency relative to KRN7000 (IL-2 production) [1]: extremely enhanced potency
- prevention of diabetes in NOD mice compared with KRN7000 [2]: superior to KRN7000
- cytokine bias [3]: bias towards inducing Type 2 cytokines
- IL-4 induction ([3]; in vitro): strong inducers of IL-4
- IFNγ induction ([3]; in vitro, DB03-3: in some murine strains): blunted IFNγ
- in vitro activity at modulating cytokines ([3]; murine cell assay system): show in vitro activity
- stimulation of human NKT cell clones [4]: active
- binding of glycolipid human CD1d tetramers to human NKT cells [5]: bind strongly
- effectiveness of compound [6]: Particularly effective
